Details: Liquid

CC[Si](OC)(OC)OC [ethyltrimethoxysilane]
Details | vapor or sublimation pressure [kPa]
306.35 K | 2.325
311.45 K | 3.325
315.95 K | 4.325
319.8 K | 5.325
324.15 K | 6.325
328.65 K | 8.325
334.15 K | 10.32
338.95 K | 13.32
343.65 K | 16.32
347.65 K | 19.32
351.35 K | 22.32
354.55 K | 25.32
357.45 K | 28.32
360.15 K | 31.32
362.65 K | 34.33
364.95 K | 37.33
367.55 K | 40.33
369.65 K | 43.33
371.05 K | 46.33
374.05 K | 49.33
375.85 K | 52.33
376.45 K | 55.33
379.85 K | 58.33
381.15 K | 61.33
382.55 K | 64.33
383.15 K | 67.33
384.85 K | 70.33
385.85 K | 73.33
386.65 K | 76.33
387.55 K | 79.33
388.95 K | 82.33
389.95 K | 85.33
390.95 K | 88.33
392.95 K | 91.33
393.05 K | 94.33
393.75 K | 97.33
393.95 K | 100.33
397.15 K | 101.33

Source: the NIST ThermoML archive (doi:10.1021/je100017w)
